This is an account of results in ChEMBL document CHEMBL1152971, “Cycloartane triterpenoids from Kleinhovia hospita” (J Nat Prod, 2009).

The assay relates to HepG2. As to the kind of experiment: Hepatoprotective activity against nitrofurantoin-induced cytotoxicity in human HepG2 cells after 2 hrs by MTT assay. The settings on record: HepG2, 2 h. In kind it is functional, cell-based. (In general: Formazan colour is commonly taken as a measure of viable cells.)

Each structure is given as a SMILES string.

Consider `CO[C@H]1O[C@]2(C=C(C)C(=O)O2)C[C@@H]1[C@H]1CC[C@@]2(C)[C@@H]3CC[C@H]4C(C)(C)C(=O)C=C[C@@]45C[C@@]35CC[C@]12C`, for which the midpoint of the response, the EC50, lay at 123 µM.

In turn, `CC(C)=CC(=O)C[C@@H](C)[C@H]1CC[C@@]2(C)[C@@H]3CC[C@H]4[C@](C)(C(=O)O)[C@@H](O)C[C@H](O)[C@@]45C[C@@]35CC[C@]12C` [GARDENOLIC ACID B] had an EC50 of 66.4 µM. This EC50 is about 1.9-fold lower than that of the compound before.

In the case of `COc1cc(C2Oc3cc([C@H]4Oc5cc(O)cc(O)c5C(=O)[C@@H]4O)ccc3OC2CO)ccc1O` (some centres undefined) [SILIBININ], the midpoint of the response, the EC50, lay at 75.7 µM.

On to `CC(C)=CC(=O)C[C@@H](C)[C@H]1CC[C@@]2(C)[C@@H]3CC[C@H]4C(C)(C)C(=O)C=C[C@@]45C[C@@]35CC[C@]12C`, for which the EC50 was 109 µM.

By EC50 is commonly meant the concentration that produces a half-maximal response.
